Data set [1] has as its system cells isolated from normal skin tissue. Kind of data set: Toxicity assay using CCK-8 reagent (cell viability). It counts as cell-based. The settings on record: for cell viability: cells from normal skin tissue, overnight, CCK-8. The method, then: Thereafter, 10 μL of Cell Counting Kit-8 reagent (Dojindo Lot. PR863) was added to each well of the 96-well plate, and after 2 hours, the safety and toxicity of the drug to the normal skin tissue were evaluated by measuring the absorbance at […].

Data set [2] concerns serum total IgE. Kind of data set: Serum total IgE by ELISA in atopic dermatitis mouse model. The format is in vivo. The protocol: (§1) Then, in order to check changes in skin-specific T cells in each animal, single suspensions were prepared using the spleen, skin, and lymph nodes, and T-cells were stained using anti-CD3, anti-CD4, anti-CD8, and anti-CD45 antibodies. Flow cytometry was performed on skin-specific T cells using anti-CD69 and anti-CD103 antibodies, thereby observing the changes in number and distribution of skin-specific T cells by the application of the drug.
(§2) Blood was collected from the mouse heart and then centrifuged at 2,500 rpm for 15 minutes, and the obtained serum was used in the experiment. Then, total IgE was measured using the ELISA MAX™ Delux Set (BioLegend, San Diego, CA, USA) kit. Dermatophagoides farinae (DF)-specific IgE was measured by ELISA using a slight modification of the previously reported method. Briefly, 100 μL of 20 μg/mL DfE in 50 mmol/L carbonate buffer (pH 9.6, Sigma, St. Louis, MO, USA) per well was plated in a 96-well microtiter plate (Corning Inc., Corning)., NY, USA) and incubated overnight at 4° C. Each well was blocked with 3% skim milk in PBS (PBST) containing 0.05% Tween 20 for 1 hour at 37° C. After washing three times with PBST, each well was incubated with a serum sample (diluted to 1:20 [V/V] in 1% BSA) overnight at 4° C. […] The absorbance was measured at 450 nm with a microplate reader (TECAN, Salzburg, Austria).

For data set [3], the system named is Dermatophagoides farinae (DF)-specific IgE. Kind of data set: Serum total DF-specific IgE by ELISA in atopic dermatitis mouse model. The format is in vivo. The protocol: as §1
Blood was collected from the mouse heart, and then serum total DF-specific IgE (ng/mL) (A450) was measured in a 96-well plate (Corning Inc., Corning, NY, USA) using the ELISA MAX™ Delux Set (BioLegend, San Diego, CA, USA) kit.
as §2, with “C.” for “C. Each well was blocked with 3% skim milk in PBS (PBST) containing 0.05% Tween 20 for 1 hour at 37° C. After washing three times with PBST, each well was incubated with a serum sample (diluted to 1:20 [V/V] in 1% BSA) overnight at 4° C.”

The subject of data set [4] is NC/Nga mice with induced atopic dermatitis. The experiment in a line: H&E staining of skin of NC/Nga mice (eosinophil count, epidermal thickness). It counts as in vivo, mouse. The method, then:
as §1
In atopic dermatitis, the eosinophil count is observed to be characteristically high, making it a representative biological indicator that can explain the immunological mechanism of atopic dermatitis. Based on this fact, hematoxylin and eosin (H&E) staining in NC/Nga mice was performed. […] In addition, when atopic dermatitis occurs, the skin thickens due to an excessive inflammatory response.

The subject of data set [5] is T cells in skin-draining lymph nodes. Kind of data set: FACS of T cell fractions in skin-draining lymph nodes of atopic dermatitis mouse model. It counts as in vivo. The protocol: as §1
Data set [6] deals with T cells in the spleen. Kind of data set: FACS of T cell fractions in spleen of atopic dermatitis mouse model. The format is in vivo. The method, then: as §1
In data set [7] the test system is skin-specific T cells. Kind of data set: FACS of T cell fractions in skin of atopic dermatitis mouse model. The format is in vivo. The method, then:
as §1

Data set [8] has as its system skin-specific T cells. Kind of data set: FACS of skin-specific T cells in human skin with atopic dermatitis lesions. It counts as cell-based. The following applies: skin immune cells and skin lesions of atopic dermatitis patients, 50 μM and 100 μM, FIG. 13. The protocol: To verify the effect of the candidate drug on skin-specific T cells in human skin tissue, a single suspension was prepared using the skin from an atopic dermatitis patient. T cells were stained using anti-CD3, anti-CD4, anti-CD8 and anti-CD45 antibodies, and flow cytometry was performed on skin-specific T cells using anti-CD69 and anti-CD103 antibodies, which are skin TRM markers, thereby observing the changes in number and distribution of skin-specific T cells by the application of the drug.

The mark [9] stands for this setting: 100 μM, compared to 0.1% dexamethasone.

Regarding idelalisib, the cell viability in data set [1] (50 μM) and in data set [1] (100 μM) was at least 90% throughout. In addition, the “toxicity in normal skin tissue” value in data set [1] (CCK-8, FIG. 4) is given as “no significant toxicity”. Further, in data set [2] (50 μM and 100 μM, ELISA, FIG. 7), the “serum total IgE level” value is recorded as “decreased the total IgE level in a dose-dependent manner”. The “decrease in serum total IgE level compared to positive control” value in data set [2] (setting [9]) is recorded as “significantly greater”. For the same substance, the “total DF-specific IgE level” value in data set [3] (50 μM and 100 μM, ELISA, FIG. 8) is given as “reduced the level of total DF-specific IgE in a dose-dependent manner”. For the same substance, the “total DF-specific IgE level compared to positive control” value in data set [3] (setting [9]) was “significantly decreased even compared to that in the 0.1% dexamethasone group”. The epidermal thickness result in data set [4] (FIG. 9B) is given as “decreased as the concentration of idelalisib increased”. Also, the eosinophil count result in data set [4] (FIG. 9C) is recorded as “decreased depending on the idelalisib concentration”. The “proportion of CD3+ T cells in skin-draining lymph nodes” value in data set [5] (100 μM, FIG. 10A) is “lowest proportion of CD3+ T cells”. For the same substance, the “fraction of CD3+ CD4+ CD103+ T cells in skin-draining lymph nodes” value in data set [5] (100 μM, FIG. 10B) was “statistically significantly lowest”. In addition, the “fraction of T cells expressing CD69 among CD3+ CD4+ T cells in skin-draining lymph nodes” value in data set [5] (FIG. 10B) was “tended to decrease”. In addition, the “CD69+ T cells and CD103+ T cells in the spleen” value in data set [6] (FIG. 11) was “decreased statistically significantly”. For the same substance, in data set [6] (FIG. 11), the “proportion of CD3+ and CD4+ T cells in the spleen” value is reported as “decreased in a dose-dependent manner”. In addition, the “CD69+ T cells and CD103+ T cells compared to positive control” value in data set [6] (spleen, compared to 0.1% dexamethasone) was “significantly decreased in the idelalisib-treated group compared to the 0.1% dexamethasone group”. The “proportions of CD3+ and CD4+ skin-specific T cells in the skin” value in data set [7] (50 μM and 100 μM, FIG. 12) was “significantly decreased in both the 50 μM and 100 μM idelalisib groups in a dose-dependent manner”. Further, in data set [7] (FIG. 12), the “CD69+ T cells and CD103+ T cells in the skin tissues” value is recorded as “statistically significantly decreased”. For the same substance, the “proportions of skin-specific T cells compared to positive control” value in data set [7] (skin, compared to 0.1% dexamethasone) was “significantly decreased even compared to that in the 0.1% dexamethasone-treated group”. Moreover, the “proportion of skin-specific T cells” value in data set [8] was “significantly decreased in both the 50 μM and 100 μM idelalisib groups in a dose-dependent manner”.
